Patent US7109174B2, “Anticonvulsant derivatives useful for preventing the development of type II diabetes mellitus and syndrome X” (Ortho-McNeil Pharmaceutical, Inc., priority 2000, dated 2006)

How the values were obtained:
male mice (ob/ob) = experiment: Old male ob/ob mice: topiramate in food for 110 days; body weight, HbA1C, glucose, triglycerides, insulin, skin lesions; type: in vivo; conditions: for BG / BW / HbA1c / Insulin / Triglycerides: 110 days; for initial total incidence of skin lesions: when the study initiated (before dosing)
Description: Five- to seven-week old male mice (ob/ob) were purchased from The Jackson Laboratory (Bar Harbor, Me.). Upon arrival the mice were quarantined for five days and housed individually in wire mesh cages with 2-inch square “nestlets”. The mice were maintained at an ambient temperature of 21 to 23° C. on a 12 hour-12 hour light-dark schedule and given access to water and powdered chow ad libitum.
Topiramate was administered orally as a trace constituent in the food (0.143 to 2.54 mg/g). A precise quantity of topiramate was mixed thoroughly into a known amount of powdered lab chow using a mortar and pestle to grind the drug into the chow, after which the contents were placed in a 165 ounce lidded polyethylene tub and blended by shaking and rotating the tub. The lab chow (5002M Certified Diet Meal, manufactured in Brentwood, Mo. by Purina Mills, Inc.) was not less than 20% protein, 4.5% fat, and 64.5% CHO. The quantity of topiramate added to the food was based on the consumption of chow recorded during the previous three- or four-day period. The powdered food was put into stainless steel/aluminum feeders designed to prevent the mice from dispersing, spilling or contaminating the food. Mice that were able to disperse or soil the food were excluded from the study.
Thirty two-week old mice were randomly divided into three groups: (1) a control group in which no topiramate was added to the food, and (2) a group in which topiramate was added to the food in amounts sufficient to give a daily dose of 20 mg/kg for the entire 110-day dosing period, and (3) a group in which topiramate was added to the food in amounts sufficient to give a daily dose of 60 mg/kg for the entire dosing period.
The animals in each group were monitored for body weight, food consumption, blood glucose, HbA1C, insulin, triglycerides and physical signs of Type II diabetes mellitus or poor health. Body weight and food consumption were recorded twice-weekly on a Monday/Thursday or Tuesday/Friday schedule 8 to 12 hours into the light portion of the light-dark cycle. Body weight and food consumption were recorded using a scale designed for weights under 200 g. […] The mice were checked for skin lesions, and if present, the degree of severity was noted and recorded. If the general health of a mouse had deteriorated to a degree considered life threatening the mouse was euthanized.
Mice were allowed access to food containing topiramate until a few hours before being sacrificed by decapitation. Blood was collected from the neck wound into a parafilm-lined funnel. The blood was then transferred into beakers containing heparin. Plasma was separated from red blood cells by centrifugation. The plasma was frozen for subsequent analyses. Blood glucose levels, insulin and triglycerides were quantitated in the plasma. Glycated hemoglobin was also measured. The glycated hemoglobin required a 50 μl sample of whole blood, which was removed from the funnel before centrifugation. The plasma samples were then collected without freezing. All samples were packed in ice and shipped on the day blood was collected for overnight delivery to AniLytics, Inc. (200 Girard St., Suite 200, Gaithersburg, Md. 20877). The samples analyzed by AniLytics were assayed using standard procedures established by commercial laboratories that perform blood chemistry analyses. Statistical analysis was performed to determine if the data passed a test for normality (fit a Gaussian distribution). […] The data for a group of TPM-treated mice were compared to the control group.
Following the above described procedure, the effect of topiramate (TPM) on body weight (BW), glycated hemoglobin (HbA1C), blood glucose levels (BG), triglyceride and insulin levels in male ob/ob mice, were determined, with results as listed in Table 11. The abbreviation N represents the number of animals per group.

Female ZDF rats = experiment: Blood glucose and oral glucose tolerance in female ZDF rats dosed orally for 16 days; type: in vivo; conditions: for Plasma Glucose Levels: 16 days, ± SEM
Description: Female ZDF rats were also randomly divided into control and topiramate (30 or 100 mg/kg/day) treated groups, dosed orally for 16 days, and tested for blood glucose levels and oral glucose tolerance following glucose challenge of 2 g/kg. The effect of topiramate was as listed in Table 10 (N=8 rats per treatment group).

**Q.** For `CC1(C)O[C@@H]2[C@@H](CO[C@@]3(COS(N)(=O)=O)OC(C)(C)O[C@@H]23)O1` [Topiramate, 2,3:4,5-bis-O-(1-methylethylidene)-β-D-fructopyranose sulfamate], which BG (male mice (ob/ob); 20 mg/kg daily in food, n = 6) is on record?
**A.** 229.2 ± 46.0 mg/dL

**Q.** And the BW (male mice (ob/ob); 20 mg/kg daily in food, n = 6)?
**A.** 65.6 ± 2.8 g

**Q.** And the HbA1c (male mice (ob/ob); 20 mg/kg daily in food, n = 6)?
**A.** 4.98 ± 0.6%

**Q.** What about the Insulin (male mice (ob/ob); 20 mg/kg daily in food, n = 6) of the same compound?
**A.** 12.2 ± 1.9 ng/mL

**Q.** What about the Triglycerides (male mice (ob/ob); 20 mg/kg daily in food, n = 6) of the same compound?
**A.** 104 ± 6.4 mg/dL

**Q.** What about the “initial total incidence of skin lesions” value (male mice (ob/ob); 20 mg/kg group) of the same compound?
**A.** 38%

**Q.** What about the “mice died or had to be euthanized” value (male mice (ob/ob); 20 mg/kg, first 60 days of dosing) of the same compound?
**A.** four

**Q.** And the BW (male mice (ob/ob); 60 mg/kg daily in food, n = 7)?
**A.** 67.5 ± 1.6 g

**Q.** And the HbA1c (male mice (ob/ob); 60 mg/kg daily in food, n = 7)?
**A.** 3.56 ± 0.4%

**Q.** And the Insulin (male mice (ob/ob); 60 mg/kg daily in food, n = 7)?
**A.** 11.4 ± 2.1 ng/mL

**Q.** What about the Triglycerides (male mice (ob/ob); 60 mg/kg daily in food, n = 7) of the same compound?
**A.** 88 ± 3.2 mg/dL

**Q.** And the BG (male mice (ob/ob); 60 mg/kg daily in food, n = 7, P < 0.05)?
**A.** 144.3 ± 20.0 mg/dL

**Q.** And the “initial total incidence of skin lesions” value (male mice (ob/ob); 60 mg/kg group)?
**A.** 47%

**Q.** And the mice died (male mice (ob/ob); 60 mg/kg, first 60 days of dosing)?
**A.** Two

**Q.** What about the “total incidence of lesions versus control” value (male mice (ob/ob); 60 mg/kg/day, dosing period between 62 and 110 days) of the same compound?
**A.** lower than in the control group

**Q.** And the “Plasma Glucose Levels” value (Female ZDF rats; 30 mg/kg/day oral, 60 Min after Challenge (glucose 2 g/kg), P < 0.05)?
**A.** 342 ± 32 md/dL

**Q.** And the “Plasma Glucose Levels” value (Female ZDF rats; 30 mg/kg/day oral, 90 Min after Challenge, P < 0.01)?
**A.** 269 ± 32 md/dL

**Q.** What about the “Plasma Glucose Levels” value (Female ZDF rats; 30 mg/kg/day oral, 120 Min after Challenge, P < 0.01) of the same compound?
**A.** 206 ± 26 md/dL

**Q.** And the “Plasma Glucose Levels” value (Female ZDF rats; 30 mg/kg/day oral, Time = 0)?
**A.** 121 ± 13 md/dL

**Q.** What about the “Plasma Glucose Levels” value (Female ZDF rats; 100 mg/kg/day oral, 60 Min after Challenge (glucose 2 g/kg), P < 0.01) of the same compound?
**A.** 333 ± 32 md/dL

**Q.** What about the “Plasma Glucose Levels” value (Female ZDF rats; 100 mg/kg/day oral, 90 Min after Challenge, P < 0.01) of the same compound?
**A.** 242 ± 28 md/dL

**Q.** What about the “Plasma Glucose Levels” value (Female ZDF rats; 100 mg/kg/day oral, 120 Min after Challenge, P < 0.01) of the same compound?
**A.** 173 ± 23 md/dL

**Q.** And the “Plasma Glucose Levels” value (Female ZDF rats; 100 mg/kg/day oral, Time = 0)?
**A.** 129 ± 15 md/dL

**Q.** What about the oral glucose tolerance (Female ZDF rats; at 60, 90 and 120 minutes after glucose challenge) of the same compound?
**A.** improves
